From US20150064255A1, “NANOSTRUCTURES FOR TREATING CANCERS AND OTHER CONDITIONS” (Northwestern University, priority 2012, published 2015) come the findings set out here.

Molecules are shown by their SMILES.

One assay concerns the target T1, SR-B1 (Homo sapiens, UniProt Q8WTV0).
T1 construct: treatment of SUDHL-4 cells with BLT-1 allowed a measurement of engagement and cholesterol flux through SR-B1; endogenous in cells; host or cells: SUDHL-4 cells
T1 sequence (Q8WTV0 1-552): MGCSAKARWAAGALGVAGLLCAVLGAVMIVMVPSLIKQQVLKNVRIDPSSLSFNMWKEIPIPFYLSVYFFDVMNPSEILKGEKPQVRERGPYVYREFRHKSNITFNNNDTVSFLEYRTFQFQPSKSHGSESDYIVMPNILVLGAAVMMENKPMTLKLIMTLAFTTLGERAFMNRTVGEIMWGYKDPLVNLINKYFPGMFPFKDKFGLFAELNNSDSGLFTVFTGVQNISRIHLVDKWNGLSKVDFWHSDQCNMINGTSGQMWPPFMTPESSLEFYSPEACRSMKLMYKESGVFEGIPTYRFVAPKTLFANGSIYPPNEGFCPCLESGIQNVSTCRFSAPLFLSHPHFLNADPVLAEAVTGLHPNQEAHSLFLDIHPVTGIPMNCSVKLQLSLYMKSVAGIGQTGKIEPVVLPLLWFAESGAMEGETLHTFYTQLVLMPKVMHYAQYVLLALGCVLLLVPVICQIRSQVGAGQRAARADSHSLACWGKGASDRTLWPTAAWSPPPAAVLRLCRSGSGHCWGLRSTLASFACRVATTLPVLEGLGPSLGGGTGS
Put plainly: BLT-1 cholesterol flux assays in SUDHL-4 cells. In kind it is cell-based. As to conditions: SUDHL-4 cells pre-treated with 10 μM BLT-1 for 2 hr. On the procedure: Blocker of lipid transport-1 (BLT-1) is a small molecule that binds cysteine-384 in the extracellular loop domain of SR-B1 and inhibits cholesterol flux through SR-B1 without altering the binding of HDL particles to the receptor. Thus, treatment of SUDHL-4 cells with BLT-1 allowed a measurement of engagement and cholesterol flux through SR-B1.
Alterations in cholesterol flux after addition of blocker of lipid transport 1 (BLT-1) were measured as described above; however, cells were pre-treated with 10 μM BLT-1 (2-hexyl-1-cyclopentanone thiosemicarbazone, ChemBridge Corporation) for 2 hr prior to cell treatments. Following cholesterol influx or efflux, the cells were collected in fresh media for measurement of cholesterol flux as previously described. Efflux is expressed as a percentage of the control cells, which were not treated with BLT-1. Influx is expressed as a percentage of the control cells, which were not treated with BLT-1.

The test system of another assay is Ramos cells. Kind of assay: MTS cell viability assay. In kind it is cell-based, human. As to conditions: untreated control set to 100%. The text has this:
Ramos and SUDHL-4 cell lines are GC-derived B cell lines from BL and DLBCL, respectively. In addition, we chose to study the ABC-like DLBCL line, LY3. Jurkat cells and normal human lymphocytes provided SR-B1 receptor negative controls. In addition, we also chose two primary cells known to express SR-B1 that are critical cell types naturally engaged by HDLs, hepatocytes and macrophages. For each of the cell types, we measured cell viability by an MTS assay following treatment with human serum derived HDL (hHDL) or HDL-NPs. MTS is a colorimetric assay where the magnitude of absorbance is proportional to cell viability. For each treatment, and for each comparison made throughout our studies, we added equivalent doses of hHDL and HDL-NPs based upon the amount of apolipoprotein A-1 (Apo A1). […] Treatment with hHDL or HDL-NPs had no effect in primary hepatocytes or macrophage cells (FIGS. 3C and 3D). […]
For primary human hepatocytes and CD14+ monocytes, 9×10^3 cells/90 μL were seeded in 96-well plates and allowed to attach, and differentiate in the case of the CD14+ monocytes, for 24 hours prior to initiation of treatment. […] The absorbance was read at 490 nm using a microplate reader (MRX Revelation; DYNEX Technologies) and was expressed as a percentage of the control group. […]

In the case of `CCCCCCC1CCCC1=NNC(N)=S` (centres unmarked) [BLT-1, 2-hexyl-1-cyclopentanone thiosemicarbazone], at SR-B1, the “cholesterol flux to hHDL and HDL-NPs” value was “inhibited cholesterol flux”.

Take `CCCCCCCCCCCCCCCC(=O)OC[C@H](COP(=O)(O)OCCNC(=O)CCSSc1ccccn1)OC(=O)CCCCCCCCCCCCCCC` [PDP PE, 1,2-dipalmitoyl-sn-glycero-3-phosphoethanolamine-N-[3-(2-pyridyldithio)propionate]]: the “relative absorbance, MTS assay (cell viability)” value in the assay with Ramos cells was “relatively small but statistically significant reduction”.
